{"source": "paper PMC5362750", "about": "“Discovery of Potent, Selective, and Orally Bioavailable Small-Molecule Modulators of the Mediator Complex-Associated Kinases CDK8 and CDK19” (Journal of Medicinal Chemistry, 2016)", "key": {"SAPK2A(T106M)": {"target": "SAPK2A(T106M) (Homo sapiens, UniProt Q16539, T106M)", "settings": "1 µM, ATP at Km"}, "IR": {"target": "T1, IR (Homo sapiens, UniProt P06213)", "T1 construct": "purchased Millipore (KinaseProfiler) kinase panel", "T1 sequence (P06213 28-1382)": "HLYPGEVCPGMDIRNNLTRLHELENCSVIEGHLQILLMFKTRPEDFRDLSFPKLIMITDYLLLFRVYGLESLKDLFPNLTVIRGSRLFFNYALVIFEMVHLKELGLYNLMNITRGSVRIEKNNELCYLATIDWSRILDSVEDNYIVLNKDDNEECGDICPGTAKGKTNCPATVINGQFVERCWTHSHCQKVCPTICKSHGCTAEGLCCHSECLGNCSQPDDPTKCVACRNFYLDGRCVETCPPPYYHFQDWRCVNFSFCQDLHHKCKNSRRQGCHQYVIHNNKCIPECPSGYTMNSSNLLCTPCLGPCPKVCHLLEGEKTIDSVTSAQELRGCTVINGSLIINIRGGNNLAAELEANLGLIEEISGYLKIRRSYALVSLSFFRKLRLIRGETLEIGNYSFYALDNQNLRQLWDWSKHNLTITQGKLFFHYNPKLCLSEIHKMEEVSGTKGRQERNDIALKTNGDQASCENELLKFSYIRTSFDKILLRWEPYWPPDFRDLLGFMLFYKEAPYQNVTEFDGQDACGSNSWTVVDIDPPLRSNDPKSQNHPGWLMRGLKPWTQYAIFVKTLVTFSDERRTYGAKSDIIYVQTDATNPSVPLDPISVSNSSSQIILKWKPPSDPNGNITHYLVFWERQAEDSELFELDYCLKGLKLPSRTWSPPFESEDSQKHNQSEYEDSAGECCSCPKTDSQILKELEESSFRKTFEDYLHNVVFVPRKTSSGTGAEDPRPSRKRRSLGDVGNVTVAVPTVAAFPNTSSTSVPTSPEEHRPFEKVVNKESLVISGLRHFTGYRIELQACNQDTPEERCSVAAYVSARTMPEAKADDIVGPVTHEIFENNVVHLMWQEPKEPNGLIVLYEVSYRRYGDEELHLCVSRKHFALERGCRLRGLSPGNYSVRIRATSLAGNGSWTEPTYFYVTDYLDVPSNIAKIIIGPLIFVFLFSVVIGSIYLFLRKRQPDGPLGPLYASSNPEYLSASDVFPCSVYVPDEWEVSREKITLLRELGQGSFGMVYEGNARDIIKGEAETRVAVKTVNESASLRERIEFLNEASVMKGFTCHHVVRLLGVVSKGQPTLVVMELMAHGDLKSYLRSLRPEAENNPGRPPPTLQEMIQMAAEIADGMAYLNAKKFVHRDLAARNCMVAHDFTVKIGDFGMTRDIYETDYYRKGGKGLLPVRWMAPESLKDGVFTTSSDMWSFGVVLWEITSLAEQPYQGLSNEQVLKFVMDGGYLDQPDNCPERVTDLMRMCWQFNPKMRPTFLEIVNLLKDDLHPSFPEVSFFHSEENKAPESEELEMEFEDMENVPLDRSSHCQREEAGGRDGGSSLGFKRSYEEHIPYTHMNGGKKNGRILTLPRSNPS", "assay": "Kinase panel (Millipore)", "format": "biochemical", "settings": "1 µM, ATP at Km"}, "SRC(1-530)": {"target": "SRC(1-530) (Homo sapiens, UniProt P12931)", "assay": "Kinase panel (Millipore)", "format": "biochemical", "settings": "1 µM, ATP at Km"}, "GCK": {"target": "T2, GCK (Homo sapiens, UniProt Q12851)", "T2 construct": "purchased Millipore (KinaseProfiler) kinase panel", "assay": "Kinase panel (Millipore)", "format": "biochemical", "settings": "1 µM, ATP at Km"}, "MC3 (h)": {"target": "T3, MC3 (h) (Homo sapiens, UniProt P41968)", "T3 construct": "purchased Millipore (KinaseProfiler) kinase panel", "assay": "CEREP binding assay", "settings": "agonist radioligand, read-out: % Inhibition of Control Specific Binding"}, "PYK2": {"target": "T4, PYK2 (Homo sapiens, UniProt Q14289)", "T4 construct": "purchased Millipore (KinaseProfiler) kinase panel", "assay": "Kinase panel (Millipore)", "format": "biochemical", "settings": "1 µM, ATP at Km"}, "In vivo mouse PK": {"assay": "In vivo mouse PK", "settings": "female, NMRI, plasma, iv, 0.2 mg/kg"}, "in vivo": {"assay": "in vivo", "settings": "female, dog, 0.2 mg/kg"}, "FAK": {"target": "FAK (Homo sapiens, UniProt Q05397)", "assay": "Kinase panel (Millipore)", "format": "biochemical", "settings": "1 µM, ATP at Km"}, "NLK": {"target": "T5, NLK (Homo sapiens, UniProt Q9UBE8)", "T5 construct": "purchased Millipore (KinaseProfiler) kinase panel", "assay": "Kinase panel (Millipore)", "format": "biochemical", "settings": "1 µM, ATP at Km"}, "GRK7": {"target": "GRK7 (Homo sapiens, UniProt Q8WTQ7)", "assay": "Kinase panel (Millipore)", "format": "biochemical", "settings": "1 µM, ATP at Km"}, "DDR2": {"target": "DDR2 (Homo sapiens, UniProt Q16832)", "assay": "Kinase panel (Millipore)", "format": "biochemical", "settings": "1 µM, ATP at Km"}, "CAMKIIGAMMA": {"target": "CAMKIIGAMMA (Homo sapiens, UniProt Q13555)", "assay": "Kinase panel (Millipore)", "format": "biochemical", "settings": "1 µM, ATP at Km"}, "TAK1": {"target": "T6, TAK1 (Homo sapiens, UniProt O43318)", "T6 construct": "purchased Millipore (KinaseProfiler) kinase panel", "assay": "Kinase panel (Millipore)", "format": "biochemical", "settings": "1 µM, ATP at Km"}, "SRPK2": {"target": "T7, SRPK2 (Homo sapiens, UniProt P78362)", "T7 construct": "purchased Millipore (KinaseProfiler) kinase panel", "assay": "Kinase panel (Millipore)", "format": "biochemical", "settings": "1 µM, ATP at Km"}, "EPHB3": {"target": "T8, EPHB3 (Homo sapiens, UniProt P54753)", "T8 construct": "purchased Millipore (KinaseProfiler) kinase panel", "assay": "Kinase panel (Millipore)", "format": "biochemical", "settings": "1 µM, ATP at Km"}, "PIM-3": {"target": "PIM-3 (Homo sapiens, UniProt Q86V86)", "assay": "Kinase panel (Millipore)", "format": "biochemical", "settings": "1 µM, ATP at Km"}, "EPHA7": {"target": "T9, EPHA7 (Homo sapiens, UniProt Q15375)", "T9 construct": "purchased Millipore (KinaseProfiler) kinase panel", "T9 sequence (Q15375 28-998)": "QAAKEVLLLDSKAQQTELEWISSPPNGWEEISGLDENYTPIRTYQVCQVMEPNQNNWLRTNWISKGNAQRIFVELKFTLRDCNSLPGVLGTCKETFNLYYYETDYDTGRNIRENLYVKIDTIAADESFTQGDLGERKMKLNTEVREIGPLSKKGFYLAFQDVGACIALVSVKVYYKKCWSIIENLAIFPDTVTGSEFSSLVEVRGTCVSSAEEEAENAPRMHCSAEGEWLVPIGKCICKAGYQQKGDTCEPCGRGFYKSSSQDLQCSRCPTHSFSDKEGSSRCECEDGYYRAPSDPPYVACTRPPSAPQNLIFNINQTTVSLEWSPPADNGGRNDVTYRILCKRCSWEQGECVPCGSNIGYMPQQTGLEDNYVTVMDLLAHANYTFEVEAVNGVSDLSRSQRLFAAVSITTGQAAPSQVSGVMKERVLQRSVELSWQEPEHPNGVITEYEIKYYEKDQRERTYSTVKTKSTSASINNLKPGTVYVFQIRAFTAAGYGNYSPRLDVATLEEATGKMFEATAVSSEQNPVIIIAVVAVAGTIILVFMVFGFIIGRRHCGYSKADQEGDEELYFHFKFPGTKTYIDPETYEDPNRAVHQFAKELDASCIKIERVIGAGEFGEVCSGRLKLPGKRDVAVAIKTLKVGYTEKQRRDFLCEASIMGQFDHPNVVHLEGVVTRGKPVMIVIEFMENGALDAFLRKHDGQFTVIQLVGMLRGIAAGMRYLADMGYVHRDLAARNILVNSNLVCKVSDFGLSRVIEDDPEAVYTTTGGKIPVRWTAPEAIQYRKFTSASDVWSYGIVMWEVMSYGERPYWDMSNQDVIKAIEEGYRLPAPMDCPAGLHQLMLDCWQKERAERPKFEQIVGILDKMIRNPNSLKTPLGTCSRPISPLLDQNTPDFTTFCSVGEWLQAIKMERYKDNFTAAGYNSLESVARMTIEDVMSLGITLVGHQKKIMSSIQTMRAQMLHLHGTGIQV", "assay": "Kinase panel (Millipore)", "format": "biochemical", "settings": "1 µM, ATP at Km"}, "DCAMKL2": {"target": "T10, DCAMKL2 (Homo sapiens, UniProt Q8N568)", "T10 construct": "purchased Millipore (KinaseProfiler) kinase panel", "assay": "Kinase panel (Millipore)", "format": "biochemical", "settings": "1 µM, ATP at Km"}, "SRC": {"target": "SRC (Homo sapiens, UniProt P12931)", "sequence (P12931 whole entry)": "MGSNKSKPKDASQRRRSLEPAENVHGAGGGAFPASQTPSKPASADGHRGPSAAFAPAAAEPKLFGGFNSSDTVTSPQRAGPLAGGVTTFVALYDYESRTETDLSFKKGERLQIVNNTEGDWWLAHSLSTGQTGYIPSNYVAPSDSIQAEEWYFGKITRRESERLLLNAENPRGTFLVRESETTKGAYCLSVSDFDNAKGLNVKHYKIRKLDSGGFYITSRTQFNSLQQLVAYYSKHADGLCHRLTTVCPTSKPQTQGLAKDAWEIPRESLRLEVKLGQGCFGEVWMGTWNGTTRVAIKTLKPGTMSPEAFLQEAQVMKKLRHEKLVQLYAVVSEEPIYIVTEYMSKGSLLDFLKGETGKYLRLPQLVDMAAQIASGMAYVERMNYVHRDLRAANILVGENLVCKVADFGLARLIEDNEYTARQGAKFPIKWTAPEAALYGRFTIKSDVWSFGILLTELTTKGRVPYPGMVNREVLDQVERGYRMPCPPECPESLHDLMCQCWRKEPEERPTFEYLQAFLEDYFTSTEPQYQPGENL", "assay": "Kinase panel (Millipore)", "format": "biochemical", "settings": "1 µM, ATP at Km"}, "CK2": {"target": "CK2 (Homo sapiens, UniProt P68400)", "sequence (P68400 whole entry)": "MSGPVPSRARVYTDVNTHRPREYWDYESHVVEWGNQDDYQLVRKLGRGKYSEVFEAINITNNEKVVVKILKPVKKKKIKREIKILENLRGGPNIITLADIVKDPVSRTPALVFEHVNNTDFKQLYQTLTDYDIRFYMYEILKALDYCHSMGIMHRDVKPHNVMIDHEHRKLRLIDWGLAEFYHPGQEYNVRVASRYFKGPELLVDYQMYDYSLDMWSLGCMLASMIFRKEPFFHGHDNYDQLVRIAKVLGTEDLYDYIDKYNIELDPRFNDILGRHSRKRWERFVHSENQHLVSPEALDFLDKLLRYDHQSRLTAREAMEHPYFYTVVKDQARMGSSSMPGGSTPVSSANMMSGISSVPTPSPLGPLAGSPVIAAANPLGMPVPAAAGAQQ", "sequence (P67870 whole entry partner)": "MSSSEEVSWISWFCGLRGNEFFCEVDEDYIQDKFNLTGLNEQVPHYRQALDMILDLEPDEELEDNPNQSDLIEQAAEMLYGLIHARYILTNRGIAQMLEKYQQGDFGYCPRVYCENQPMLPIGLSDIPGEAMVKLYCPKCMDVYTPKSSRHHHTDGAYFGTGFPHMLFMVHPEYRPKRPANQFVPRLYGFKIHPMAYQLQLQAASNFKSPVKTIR", "settings": "1 µM, ATP at Km"}, "CHK2(R145W)": {"target": "CHK2(R145W) (Homo sapiens, UniProt O96017, R145W)", "settings": "1 µM, ATP at Km"}, "CDK3/CYCLINE": {"target": "CDK3/CYCLINE (Homo sapiens, UniProt Q00526)", "settings": "1 µM, ATP at Km"}, "FLT1": {"target": "T11, FLT1 (Homo sapiens, UniProt P17948)", "T11 construct": "purchased Millipore (KinaseProfiler) kinase panel", "assay": "Kinase panel (Millipore)", "format": "biochemical", "settings": "1 µM, ATP at Km"}, "PKBBETA": {"target": "PKBBETA (Homo sapiens, UniProt P31751)", "assay": "Kinase panel (Millipore)", "format": "biochemical", "settings": "1 µM, ATP at Km"}, "5-HT4e (h)": {"target": "5-HT4e (h) (Homo sapiens, UniProt Q13639)", "assay": "biochemical", "settings": "read-out: % Inhibition of Control Specific Binding"}, "ABL (M351T)": {"target": "ABL (M351T) (Homo sapiens, UniProt P00519, M351T)", "settings": "1 µM, ATP at Km"}, "PDGFRALPHA": {"target": "T12, PDGFRALPHA (Homo sapiens, UniProt P16234)", "T12 construct": "purchased Millipore (KinaseProfiler) kinase panel", "assay": "Kinase panel (Millipore)", "format": "biochemical", "settings": "1 µM, ATP at Km"}, "MUSK": {"target": "T13, MUSK (Homo sapiens, UniProt O15146)", "T13 construct": "purchased Millipore (KinaseProfiler) kinase panel", "assay": "Kinase panel (Millipore)", "format": "biochemical", "settings": "1 µM, ATP at Km"}, "PI3K DELTA": {"target": "PI3K DELTA (Homo sapiens, UniProt O00329)", "assay": "Kinase panel (Millipore)", "format": "biochemical", "settings": "1 µM, ATP at Km"}, "FMS": {"target": "T14, FMS (Homo sapiens, UniProt P07333)", "T14 construct": "purchased Millipore (KinaseProfiler) kinase panel", "assay": "Kinase panel (Millipore)", "format": "biochemical", "settings": "1 µM, ATP at Km"}, "MET": {"target": "T15, MET (Homo sapiens, UniProt P08581)", "T15 construct": "purchased Millipore (KinaseProfiler) kinase panel", "assay": "Kinase panel (Millipore)", "format": "biochemical", "settings": "1 µM, ATP at Km"}, "A1 (h)": {"target": "A1 (h) (Homo sapiens, UniProt P30542)", "assay": "CEREP binding assay", "settings": "agonist radioligand, read-out: % Inhibition of Control Specific Binding"}, "MSSK1": {"target": "T16, MSSK1 (Homo sapiens, UniProt Q9UPE1)", "T16 construct": "purchased Millipore (KinaseProfiler) kinase panel", "assay": "Kinase panel (Millipore)", "format": "biochemical", "settings": "1 µM, ATP at Km"}, "FER": {"target": "T17, FER (Homo sapiens, UniProt P16591)", "T17 construct": "purchased Millipore (KinaseProfiler) kinase panel", "assay": "Kinase panel (Millipore)", "format": "biochemical", "settings": "1 µM, ATP at Km"}, "NK1 (h)": {"target": "NK1 (h) (Homo sapiens, UniProt P25103)", "assay": "CEREP binding assay", "settings": "agonist radioligand, read-out: % Inhibition of Control Specific Binding"}, "BRSK2": {"target": "T18, BRSK2 (Homo sapiens, UniProt Q8IWQ3)", "T18 construct": "purchased Millipore (KinaseProfiler) kinase panel", "assay": "Kinase panel (Millipore)", "format": "biochemical", "settings": "1 µM, ATP at Km"}, "RON": {"target": "T19, RON (Homo sapiens, UniProt Q04912)", "T19 construct": "purchased Millipore (KinaseProfiler) kinase panel", "T19 sequence (Q04912 25-1400)": "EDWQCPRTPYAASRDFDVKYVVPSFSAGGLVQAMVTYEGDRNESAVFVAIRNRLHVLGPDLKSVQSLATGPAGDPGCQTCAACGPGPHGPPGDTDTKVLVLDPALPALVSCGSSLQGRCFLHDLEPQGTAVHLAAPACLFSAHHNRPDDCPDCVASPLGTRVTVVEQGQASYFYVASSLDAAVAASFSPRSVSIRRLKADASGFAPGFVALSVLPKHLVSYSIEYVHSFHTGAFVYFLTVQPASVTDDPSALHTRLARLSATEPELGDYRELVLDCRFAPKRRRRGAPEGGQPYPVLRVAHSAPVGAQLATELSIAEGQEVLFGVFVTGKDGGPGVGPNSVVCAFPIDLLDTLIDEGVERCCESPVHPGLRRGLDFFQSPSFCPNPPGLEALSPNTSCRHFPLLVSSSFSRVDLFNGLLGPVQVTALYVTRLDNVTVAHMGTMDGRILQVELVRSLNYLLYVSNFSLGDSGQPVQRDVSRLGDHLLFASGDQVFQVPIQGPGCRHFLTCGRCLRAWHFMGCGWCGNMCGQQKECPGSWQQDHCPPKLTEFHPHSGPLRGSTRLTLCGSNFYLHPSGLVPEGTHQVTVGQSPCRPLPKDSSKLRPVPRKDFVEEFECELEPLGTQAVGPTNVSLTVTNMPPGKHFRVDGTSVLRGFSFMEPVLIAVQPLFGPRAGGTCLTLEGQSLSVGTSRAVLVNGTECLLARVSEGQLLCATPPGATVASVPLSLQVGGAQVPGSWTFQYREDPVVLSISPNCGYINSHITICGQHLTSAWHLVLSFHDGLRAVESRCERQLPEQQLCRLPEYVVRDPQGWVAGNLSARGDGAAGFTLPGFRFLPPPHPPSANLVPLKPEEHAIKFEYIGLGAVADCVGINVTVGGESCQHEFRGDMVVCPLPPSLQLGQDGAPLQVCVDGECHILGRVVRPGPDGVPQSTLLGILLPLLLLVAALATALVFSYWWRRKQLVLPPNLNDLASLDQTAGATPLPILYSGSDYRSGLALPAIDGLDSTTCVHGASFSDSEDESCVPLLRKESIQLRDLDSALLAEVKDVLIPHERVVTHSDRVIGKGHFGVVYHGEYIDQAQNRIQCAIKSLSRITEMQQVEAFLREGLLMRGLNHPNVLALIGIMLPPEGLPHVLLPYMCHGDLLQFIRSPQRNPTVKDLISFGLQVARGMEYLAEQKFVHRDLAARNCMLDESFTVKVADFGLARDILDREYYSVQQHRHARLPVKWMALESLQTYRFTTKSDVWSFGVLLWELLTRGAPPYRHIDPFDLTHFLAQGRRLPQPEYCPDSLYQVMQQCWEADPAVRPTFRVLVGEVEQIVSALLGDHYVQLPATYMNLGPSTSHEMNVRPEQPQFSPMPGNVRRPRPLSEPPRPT", "assay": "Kinase panel (Millipore)", "format": "biochemical", "settings": "1 µM, ATP at Km"}, "JNK1ALPHA1": {"target": "JNK1ALPHA1 (Homo sapiens, UniProt P45983)", "assay": "Kinase panel (Millipore)", "format": "biochemical", "settings": "1 µM, ATP at Km"}, "PI3K GAMMA": {"target": "PI3K GAMMA (Homo sapiens, UniProt P48736)", "assay": "Kinase panel (Millipore)", "format": "biochemical", "settings": "1 µM, ATP at Km"}, "MAPKAP-K3": {"target": "T20, MAPKAP-K3 (Homo sapiens, UniProt Q16644)", "T20 construct": "purchased Millipore (KinaseProfiler) kinase panel", "assay": "Kinase panel (Millipore)", "format": "biochemical", "settings": "1 µM, ATP at Km"}, "TIE2": {"target": "T21, TIE2 (Homo sapiens, UniProt Q02763)", "T21 construct": "purchased Millipore (KinaseProfiler) kinase panel", "assay": "Kinase panel (Millipore)", "format": "biochemical", "settings": "1 µM, ATP at Km"}, "CDK9/CYCLINT1": {"target": "CDK9/CYCLINT1 (Homo sapiens, UniProt P50750)", "settings": "1 µM, ATP at Km"}}, "data": [{"smiles": "Cn1ncc2cc(-c3cnc(N)c(Cl)c3N3CCC4(CCNC4=O)CC3)ccc21", "note": "[Compound 109, 8-(2-Amino-3-chloro-5-(1-methyl-1H-indazol-5-yl)pyridin-4-yl)-2,8-diazaspiro[4.5]decan-1-one]", "values": [{"measurement": "% effect", "setting": "SAPK2A(T106M)", "result": 2, "unit": "%"}, {"measurement": "% effect", "setting": "IR", "result": -5, "unit": "%"}, {"measurement": "% effect", "setting": "SRC(1-530)", "result": 0, "unit": "%"}, {"measurement": "% effect", "setting": "GCK", "result": -10, "unit": "%"}, {"measurement": "inhibition at 10 µM", "setting": "MC3 (h)", "result": -24, "unit": "%"}, {"measurement": "% effect", "setting": "PYK2", "result": -2, "unit": "%"}, {"measurement": "Vd", "setting": "In vivo mouse PK", "result": 0.63, "unit": "L/kg"}, {"measurement": "clearance", "setting": "In vivo mouse PK; Cl, 0.2 mg/kg iv", "result": 10.2, "unit": "mL/min/kg"}, {"measurement": "Vd", "setting": "in vivo", "result": 1.4, "unit": "L/kg"}, {"measurement": "clearance", "setting": "in vivo; iv", "result": 17.8, "unit": "mL/min/kg"}, {"measurement": "% effect", "setting": "FAK", "result": 6, "unit": "%"}, {"measurement": "% effect", "setting": "NLK", "result": -5, "unit": "%"}, {"measurement": "% effect", "setting": "GRK7", "result": -1, "unit": "%"}, {"measurement": "% effect", "setting": "DDR2", "result": 19, "unit": "%"}, {"measurement": "% effect", "setting": "CAMKIIGAMMA", "result": 8, "unit": "%"}, {"measurement": "% effect", "setting": "TAK1", "result": -14, "unit": "%"}, {"measurement": "% effect", "setting": "SRPK2", "result": 4, "unit": "%"}, {"measurement": "% effect", "setting": "EPHB3", "result": 5, "unit": "%"}, {"measurement": "% effect", "setting": "PIM-3", "result": 6, "unit": "%"}, {"measurement": "% effect", "setting": "EPHA7", "result": 13, "unit": "%"}, {"measurement": "% effect", "setting": "DCAMKL2", "result": -3, "unit": "%"}, {"measurement": "% effect", "setting": "SRC", "result": 7, "unit": "%"}, {"measurement": "% effect", "setting": "CK2", "result": 3, "unit": "%"}, {"measurement": "% effect", "setting": "CHK2(R145W)", "result": 7, "unit": "%"}, {"measurement": "% effect", "setting": "CDK3/CYCLINE", "result": 6, "unit": "%"}, {"measurement": "% effect", "setting": "FLT1", "result": -8, "unit": "%"}, {"measurement": "% effect", "setting": "PKBBETA", "result": -21, "unit": "%"}, {"measurement": "inhibition at 10 µM", "setting": "5-HT4e (h)", "result": -3, "unit": "%"}, {"measurement": "% effect", "setting": "ABL (M351T)", "result": -11, "unit": "%"}, {"measurement": "% effect", "setting": "PDGFRALPHA", "result": 10, "unit": "%"}, {"measurement": "% effect", "setting": "MUSK", "result": 3, "unit": "%"}, {"measurement": "% effect", "setting": "PI3K DELTA", "result": 6, "unit": "%"}, {"measurement": "% effect", "setting": "FMS", "result": -23, "unit": "%"}, {"measurement": "% effect", "setting": "MET", "result": 1, "unit": "%"}, {"measurement": "inhibition at 10 µM", "setting": "A1 (h)", "result": -4, "unit": "%"}, {"measurement": "% effect", "setting": "MSSK1", "result": -1, "unit": "%"}, {"measurement": "% effect", "setting": "FER", "result": 15, "unit": "%"}, {"measurement": "inhibition at 10 µM", "setting": "NK1 (h)", "result": 25, "unit": "%"}, {"measurement": "% effect", "setting": "BRSK2", "result": 0, "unit": "%"}, {"measurement": "% effect", "setting": "RON", "result": -1, "unit": "%"}, {"measurement": "% effect", "setting": "JNK1ALPHA1", "result": -6, "unit": "%"}, {"measurement": "% effect", "setting": "PI3K GAMMA", "result": 7, "unit": "%"}, {"measurement": "% effect", "setting": "MAPKAP-K3", "result": 5, "unit": "%"}, {"measurement": "% effect", "setting": "TIE2", "result": 14, "unit": "%"}, {"measurement": "% effect", "setting": "CDK9/CYCLINT1", "result": -8, "unit": "%"}]}]}
